Laboratory results as given in US20230278972A1, “SUBSTITUTED HALOALKYL SULFONANILIDE HERBICIDES” (FMC Corporation, priority 2020, published 2023).

Columns and labels:
Format in all cases: in vivo
[1] = system: ducksalad (Heteranthera limosa); test: Test B1 flooded paddy test, ducksalad; conditions: 250 g ai/ha, Flood, applied to paddy water, 2-leaf stage, visually evaluated after 10 to 14 days
From the text: A dash (-) response means no test result.

[2] = system: Oat, Wild (wild oat, Avena fatua); test: Test A1 postemergence, Oat, Wild; conditions: for Oat, Wild plant response rating: postemergence; for Plant response rating, Oat, Wild: Postemergence
Outline: (§1)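 Pre: seeds in loam/sand blend, directed soil spray. Post: potted plants, same soil, 2–10 cm, 1–2 leaf stage. Chemicals in non-phytotoxic solvent + surfactant for both.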

[3] = system: wheat (Triticum aestivum); test: Test A1 preemergence, wheat
Outline: as §1

[4] = system: Foxtail, Giant (giant foxtail, Setaria faberi); test: Test A1 preemergence, Foxtail, Giant
Outline: as §1

[5] = system: galium (catchweed bedstraw, Galium aparine); test: Test A1 postemergence, galium; conditions: for Galium plant response rating: postemergence; for Plant response rating, Galium: Postemergence
Outline: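 Both timings started from seed in a loam-sand blend. Preemergence pots got a directed soil application immediately; postemergence pots were sprayed when seedlings had one or two leaves and stood 2–10 cm. Each compound was prepared in a non-phytotoxic solvent plus surfactant.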

[6] = 31 g ai/ha, 0 to 100 scale (0 no effect, 100 complete control)
[7] = 125 g ai/ha, 0 to 100 scale, 0 no effect, 100 complete control
[8] = 31 g ai/ha, 0 to 100 scale (0 no effect, 100 complete control), 10 days

SMILES | Plant response rating, Ducksalad (0 to 100 scale, 0 is no effect, 100 is complete control) [1] | Oat, Wild plant response rating [2, 6] | Plant response rating, Oat, Wild ([2]; 125 g ai/ha, 0 to 100 scale) | Plant response rating, Wheat [3, 6] | Plant response rating, Wheat [3, 7] | Plant response rating, Foxtail, Giant [4, 6] | Plant response rating, Foxtail, Giant [4, 7] | Galium plant response rating [5, 6] | Plant response rating, Galium ([5]; 125 g ai/ha, 0 to 100 scale) | Plant response rating, Oat, Wild [2, 8] | Plant response rating, Galium [5, 8]
Cc1c(C(=O)N2C[C@@H](C)O[C@H](C)C2)cc(N(COC(=O)C(C)(C)C)S(=O)(=O)C(F)(F)F)c(C)c1C (relative stereo) [Compound 373] | 85 | 0 | 10 | 0 | 20 | 0 | 90 | 50 | 70 | – | –
CCOC(=O)N(c1cc(C(=O)N2C[C@@H](C)O[C@H](C)C2)c(C)c(C)c1C)S(=O)(=O)C(F)(F)F (relative stereo) [Compound 374] | 85 | 0 | 10 | 0 | 30 | 50 | 100 | 60 | 80 | – | –
Cc1c(NS(=O)(=O)C(F)(F)F)cc(C(=O)N2CCSCC2)c(C)c1C [Compound 283] | 50 | – | 0 | 0 | 50 | 10 | 90 | – | 70 | 0 | 50
Cc1c(C(=O)N2CCSCC2)cc(N(COC(=O)C(C)(C)C)S(=O)(=O)C(F)(F)F)c(C)c1C [Compound 285] | 50 | – | 10 | 0 | 20 | 40 | 90 | – | 80 | 0 | 40
CCOC(=O)N(c1cc(C(=O)N2CCSCC2)c(C)c(C)c1C)S(=O)(=O)C(F)(F)F [Compound 286] | 50 | – | 0 | 0 | 30 | 80 | 100 | – | 80 | 0 | 50
Cc1c(NS(=O)(=O)C(F)(F)F)cc(C(=O)N2CCC(C)CC2)c(C)c1C [Compound 366] | 65 | 0 | 0 | 0 | 10 | 100 | 100 | 50 | 100 | – | –
COC1CCN(C(=O)c2cc(NS(=O)(=O)C(F)(F)F)c(C)c(C)c2C)CC1 [Compound 367] | 80 | 0 | 0 | 10 | 40 | 90 | 100 | 50 | 100 | – | –
Cc1c(C(=O)N2CCC(C)CC2)cc(N(COC(=O)C(C)(C)C)S(=O)(=O)C(F)(F)F)c(C)c1C [Compound 369] | 65 | 0 | 0 | 0 | 0 | 0 | 20 | 60 | 80 | – | –
COC1CCN(C(=O)c2cc(N(COC(=O)C(C)(C)C)S(=O)(=O)C(F)(F)F)c(C)c(C)c2C)CC1 [Compound 370] | 70 | 0 | 0 | 0 | 10 | 10 | 90 | 90 | 100 | – | –
C#CCN(C)C(=O)c1cc(N(COC(=O)C(C)(C)C)S(=O)(=O)C(F)(F)F)c(C)c(C)c1C [Compound 371] | 55 | 0 | 0 | 0 | 10 | 10 | 100 | 70 | 100 | – | –
Cc1cc(C)c(C2=NOC3OCCCC23)cc1NS(=O)(=O)C(F)(F)F (stereo not drawn) [Compound 372] | 65 | 0 | 10 | 10 | 30 | 90 | 100 | 60 | 80 | – | –
CCC1CC(c2cc(NS(=O)(=O)C(F)(F)F)c(C)cc2C)=NO1 (stereo not drawn) [Compound 375] | 60 | 0 | 0 | 0 | 100 | 10 | 90 | 10 | 20 | – | –
CCC1CC(c2cc(N(COC(=O)C(C)(C)C)S(=O)(=O)C(F)(F)F)c(C)cc2C)=NO1 (stereo not drawn) [Compound 376] | 70 | 0 | 0 | 0 | 20 | 0 | 30 | 10 | 30 | – | –
Cc1ccc(C2=NOC3CCCC23)cc1NS(=O)(=O)C(F)(F)F (stereo not drawn) [Compound 377] | 15 | 0 | 0 | 0 | 20 | 0 | 0 | 0 | 0 | – | –
